Data set [1] relates to genotype 1a-H77 subgenomic replicon cell line. Briefly: microbe, parasite or virus in culture. Format: cell-based, HCV. Particulars: Hepatitis C virus, read-out: EC50 1a.
Data set [2] deals with genotype 1b-Con1 subgenomic replicon cell line. Briefly: microbe, parasite or virus in culture. Format: cell-based, HCV. Particulars: Hepatitis C virus, read-out: EC50 1b.
The test system of data set [3] is HCV. Particulars: hepatitis C treatment regimens, background; cited from earlier work.
For data set [4], the target named is T1, HCV polymerase 1A (Δ21 NS5B, H77) (Hepatitis C virus genotype 1a, UniProt P27958).
T1 construct: 20 to 50 nM Δ21 NS5B
Briefly: biochemical. Particulars: IC50 1a. The method, boiled down: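 Radiometric assay with Δ21 NS5B (H77): 20 μM CTP, 20 μM ATP, 1 μM ^3H-UTP, 5 nM template RNA, 2–4 h at room temperature. RNA precipitated with spermine, filter-captured and counted. IC50 from non-linear fit of retained cpm vs inhibitor concentration (tight-binding equation).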

Data set [5] concerns the target T2, HCV polymerase 1B (Δ21 NS5B, BK) (Hepatitis C virus genotype 1b, UniProt P26663).
T2 construct: 20 to 50 nM Δ21 NS5B
Briefly: biochemical. In short, it runs like this: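 Δ21 NS5B (genotype 1b, BK […]) preincubated 15 min RT with inhibitor, 2 mM MnCl2, pH 7.4, 60–125 μM GTP; started with 20 μM CTP/ATP, 1 μM 3H-UTP, 5 nM template RNA, run 2–4 h RT. Spermine-precipitated RNA filter-captured, scintillation counted; IC50 from tight-binding (Morrison) fit.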

The values below come from patent US8415351B2 (priority 2007, dated 2013).

In general, EC50 refers to the concentration at which the effect is half-maximal. In general, melting point refers to the temperature, or range, at which the solid turns liquid. In general, IC50 refers to the concentration that gives 50% inhibition. A low value points to inhibition by little substance.

T2 sequence (P26663 2420-2989, stated change not applied): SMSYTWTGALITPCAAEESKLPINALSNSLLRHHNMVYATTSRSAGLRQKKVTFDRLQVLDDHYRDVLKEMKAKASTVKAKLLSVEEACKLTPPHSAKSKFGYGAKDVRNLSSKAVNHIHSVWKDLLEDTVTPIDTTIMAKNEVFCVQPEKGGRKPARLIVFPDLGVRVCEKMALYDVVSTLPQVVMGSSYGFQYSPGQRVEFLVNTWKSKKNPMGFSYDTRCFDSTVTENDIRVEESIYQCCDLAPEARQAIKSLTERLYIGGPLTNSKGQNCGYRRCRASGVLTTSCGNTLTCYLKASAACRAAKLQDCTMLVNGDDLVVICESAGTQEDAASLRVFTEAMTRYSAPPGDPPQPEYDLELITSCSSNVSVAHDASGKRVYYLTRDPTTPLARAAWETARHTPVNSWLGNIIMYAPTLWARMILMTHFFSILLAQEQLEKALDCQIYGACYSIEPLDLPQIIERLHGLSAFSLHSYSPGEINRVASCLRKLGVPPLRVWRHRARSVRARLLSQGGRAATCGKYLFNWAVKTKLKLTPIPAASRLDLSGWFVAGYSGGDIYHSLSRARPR
T1 sequence (P27958 2421-2990, stated change not applied): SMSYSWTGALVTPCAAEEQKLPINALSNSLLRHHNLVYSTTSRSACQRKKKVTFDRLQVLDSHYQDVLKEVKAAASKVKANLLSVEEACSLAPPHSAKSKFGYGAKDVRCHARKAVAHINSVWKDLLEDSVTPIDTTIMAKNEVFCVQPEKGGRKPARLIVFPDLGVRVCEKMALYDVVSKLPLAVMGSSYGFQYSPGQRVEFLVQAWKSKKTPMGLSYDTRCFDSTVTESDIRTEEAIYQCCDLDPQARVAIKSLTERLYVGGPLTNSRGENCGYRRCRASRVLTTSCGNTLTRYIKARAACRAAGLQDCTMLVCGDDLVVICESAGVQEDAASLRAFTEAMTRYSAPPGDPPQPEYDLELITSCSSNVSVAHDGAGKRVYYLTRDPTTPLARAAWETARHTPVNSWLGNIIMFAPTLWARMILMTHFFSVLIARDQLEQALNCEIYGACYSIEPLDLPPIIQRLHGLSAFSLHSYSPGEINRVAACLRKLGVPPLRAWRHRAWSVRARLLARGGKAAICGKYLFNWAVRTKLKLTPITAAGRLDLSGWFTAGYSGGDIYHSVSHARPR

Molecule `CC(C)(C)c1cc(-n2ccc(=O)[nH]c2=O)cc(-c2ccc3cc(NS(C)(=O)=O)ccc3c2)c1Cl` [IB-L0-2.14, N-(6-(3-tert-butyl-2-chloro-5-(2,4-dioxo-3,4-dihydropyrimidin-1(2H)-yl)phenyl)naphthalen-2-yl)methanesulfonamide] gave a melting point greater than 280 °C. Further, the 50% effective concentration (EC50) in data set [1] fell in the range of 100 to 1000 nM. In data set [2], the EC50 was 10 to 100 nM.
On to `COc1c(-c2ccc3cc(NS(C)(=O)=O)ccc3c2)cc(-n2ccc(=O)[nH]c2=O)cc1C(C)(C)C(=O)O` [IB-L0-2.77, 2-(5-(2,4-dioxo-3,4-dihydropyrimidin-1(2H)-yl)-2-methoxy-3-(6-(methylsulfonamido)naphthalen-2-yl)phenyl)-2-methylpropanoic acid], for which the melting point is greater than 300 °C.
Regarding `NC(=O)c1ncn([C@@H]2O[C@H](CO)[C@@H](O)[C@H]2O)n1` [ribavirin], in data set [3], the “suppression of HCV levels / effectiveness” value was “does not effectively suppress HCV levels”.
Take `COc1c(-c2ccc3cc(NS(C)(=O)=O)ccc3c2)cc(-n2ccc(=O)[nH]c2=O)cc1C(C)(C)CO` [IB-L0-2.54, N-(6-(5-(2,4-dioxo-3,4-dihydropyrimidin-1(2H)-yl)-3-(1-hydroxy-2-methylpropan-2-yl)-2-methoxyphenyl)naphthalen-2-yl)methanesulfonamide]: the melting point was 256 to 257 °C. In addition, the EC50 in data set [1] lay within 10 to 100 nM. Moreover, the EC50 in data set [2] was 10 to 100 nM.
As to `COc1c(-c2ccc3cc(NS(C)(=O)=O)ccc3c2)cc(-n2ccc(=O)[nH]c2=O)cc1-c1ccc(C)o1` [IB-L0-2.58, N-(6-(5-(2,4-dioxo-3,4-dihydropyrimidin-1(2H)-yl)-2-methoxy-3-(5-methylfuran-2-yl)phenyl)naphthalen-2-yl)methanesulfonamide], the melting point fell in the range of 174 to 178 °C. Also, in data set [1], the half-maximal effective concentration (EC50) lay in the range of 10 to 100 nM. In data set [2], the EC50 is less than 10 nM.
For `CCOc1c(-c2ccc3cc(NS(C)(=O)=O)ccc3c2)cc(-n2ccc(=O)[nH]c2=O)cc1C(C)(C)C` [IB-L0-2.23, N-(6-(3-tert-butyl-5-(2,4-dioxo-3,4-dihydropyrimidin-1(2H)-yl)-2-ethoxyphenyl)naphthalen-2-yl)methanesulfonamide], the melting point fell in the range of 196 to 202 °C. In addition, the half-maximal effective concentration (EC50) in data set [1] is 100 to 1000 nM. Also, the EC50 in data set [2] is 10 to 100 nM.
The like results for `COc1c(-c2ccc3cc(NS(C)(=O)=O)ccc3c2)cc(-n2ccc(=O)[nH]c2=O)cc1C(F)(F)C(F)(F)F` [IB-L0-2.60, N-(6-(5-(2,4-dioxo-3,4-dihydropyrimidin-1(2H)-yl)-2-methoxy-3-(perfluoroethyl)phenyl)naphthalen-2-yl)methanesulfonamide] were, in that order, 162 to 165 °C, 100 to 1000 nM and 10 to 100 nM.
As for `COc1c(C#Cc2ccc(NS(C)(=O)=O)cc2C(F)(F)F)cc(N2CCC(=O)NC2=O)cc1C(C)(C)C` [IA-L2-1.18, N-(4-((3-tert-butyl-5-(2,4-dioxotetrahydropyrimidin-1(2H)-yl)-2-methoxyphenyl)ethynyl)-3-(trifluoromethyl)phenyl)methanesulfonamide], the EC50 in data set [1] is 10 to 100 nM; in data set [2], less than 10 nM. Moreover, the IC50 in data set [4] and in data set [5] was less than 10 nM in each case.
Take `COc1c(C#C[Si](C)(C)C)cc(-n2ccc(=O)[nH]c2=O)cc1-c1ccc2cc(NS(C)(=O)=O)ccc2c1` [IB-L0-2.78, N-(6-(5-(2,4-dioxo-3,4-dihydropyrimidin-1(2H)-yl)-2-methoxy-3-((trimethylsilyl)ethynyl)phenyl)naphthalen-2-yl)methanesulfonamide]: the melting point was 175 to 178 °C.
